Earlier results on one compound are cited in patent US5723149A, “Use of medicago saponins for the preparation of cosmetic or pharmaceutical compositions, especially dermatological compositions, promoting renewal of the epidermis, stimulating hair regrowth or delaying hair loss” (LVMH Recherche, priority 1990, dated 1998).

The conditions of series [1]: B. GESTETNER et al., Experientia, 1971.
The conditions of series [2]: DE-3 717 280.

On to `CC1(C)CC[C@]2(C(=O)O)CC[C@]3(C)C(=CC[C@@H]4[C@@]5(C)C[C@H](O)[C@H](O)[C@@](C)(C(=O)O)[C@@H]5CC[C@]43C)[C@@H]2C1` [medicagenic acid], for which, in series [1], the hemolytic activity entry was “hemolytic activity”. For the same compound, in series [2], the antifungal activity result was “antifungal activity”.
